How the values were obtained:
Test in all cases: Antimicrobial screening by agar dilution
Assay type in all cases: cell-based
Settings in all cases: after 10, 20, 40 and 60 minutes at all dilutions 1:100, 1:200, 1:400, 1:800
[1] = test system: Escherichia coli
Procedure: (§1) The antibacterial properties of the synthesized compound 9-(2-hydroxypyridin-3-yl)-10-(2-hydroxyethyl)-3,3,6,6-tetramethyl-3,4,6,7,9,10-hexahydroacridine1,8(2H,5H)-dione were studied by the method of agar dilution. Test solutions of each compound was prepared in concentration of 1% using dimethylformamide as a solvent then they are diluted in physiological solution to obtain the final experimental dilutions 1:100, 1:200, 1:400, 1:800. The effect of these substances are compared with furacillin in a controllable study. The testing microbes used were gram positive bacteria Staphylococcus aureus, gram negative bacteria Pseudomonas aeruginosa and Escherichia coli and Candida albicans fungus. The experiments used for this survey were meat-pentonlu agar (EPA) for cultivation of bacteria and Saburo environment for the fungus. Each experiment used 1 mL of test solution on each plate […]. Two drops of emulsified with microbes feel were added. All experimental samples were taken from the agar after 10, 20, 40, 60 minutes in the environment on the basis of Patrk planted. The bacteria were cultivated at a temperature of 37° C. for 1 day and the mushroom was kept in a thermostat for […] at a temperature of 28° C. Then results were checked.

[2] = test system: Candida albicans
Procedure: as §1

[3] = test system: Pseudomonas aeruginosa
Procedure: as §1

[4] = test system: Staphylococcus aureus
Procedure: as §1

Measured: inhibition activity

CC1(C)CC(=O)C2=C(C1)N(CCO)C1=C(C(=O)CC(C)(C)C1)C2c1cccnc1O [9-(2-hydroxypyridin-3-yl)-10-(2-hydroxyethyl)-3,3,6,6-tetramethyl-3,4,6,7,9,10-hexahydroacridine1,8(2H,5H)-dione]
highest inhibition activity: all assays above
